The record followed here is patent US7544806B2, “Piperidine-substituted indoles-or heteroderivatives thereof” (Boehringer Ingelheim International GmbH, priority 2003, dated 2009).

As usually defined, the melting point is the temperature of the solid-liquid transition.

In the case of `CCOC(=O)c1cccc(SCCCN2CCC(n3c(CC)cc4cc(F)ccc43)CC2)c1` [Example 36, 3-{3-[4-(2-Ethyl-5-fluoro-indol-1-yl)-piperidin-1-yl]propylsulfanyl}-benzoic acid ethyl ester], the melting point was in the range of 179 to 181 °C.
